Reference: patent publication US6274596A, “Benzoquinoline derivatives useful as antibacterial agents” (priority 1999, dated 2001)
Converted amounts (≈) assume the structure as drawn. Read-outs that look alike come from different tables or passages of the source.

Legend:
[1] = test system: E. coli (MCR106); assay: MBC, E. coli (MCR106); assay type: cell-based; settings: minimum bactericidal concentration; for MBC: Escherichia coli, read-out: MBG
Experimental: (§1) The antimicrobial activity of a compound or formulation according to the invention is determined by exposing a culture comprising a bacterial species to different concentrations of the compound or formulation and monitoring the effects on growth relative to a control culture not exposed to the compound. Any method known in the art may be used to assess bacterial growth. Antimicrobial effects are expressed as Minimal Inhibitory Concentration (MIC) and Minimum Bactericidal Concentration (MBC).
(§2) The minimum bactericidal concentration (MBC) is defined as the concentration of antimicrobial agent from which no colonies grow on petri plates or in the medium. In practice, the MBC is arbitrarily defmed as the concentration at which a 1000-fold reduction in colony forming units is observed with respect to the original inoculum (survival of 0.1%). Typically, the wells from a MIC microliter plate using a 96-well inoculation grid into a fresh microliter plate containing 100 μL Mueller-Hinton broth per well. The MBC plates are incubated at 37° C. for 16-20 hrs and the MBC values are determined.
(§3) The antimicrobial activities of the compounds of the invention, expressed as MIC and MBC, were determined as described above, using as tester strains wild-type S. aureus, rifampicin-resistant S. aureus, wild-type E. coli, and E. coli cells that had been permeabilized.

[2] = test system: S. Aureus; assay: MIC, broth microdilution, S. Aureus; assay type: cell-based; settings: for MIC: S. Aureus
Experimental: as §1
(§4) The MIC is expressed as a range between the concentration at which no growth is observed and the concentration of the dilution which immediately follows.
(§5) Typically, MIC is measured using a broth microdilution assay as follows. Dilution of candidate antimicrobial compounds in culture medium is performed in a sterile, covered 96-well microtiter plate with flat bottom wells (Costar #9017). The final concentrations of the compounds are typically 100, 50, 25, 12.5, 6.25, 3.12, 1.56, 0.78, 0.39, 0.20, 0.10, and 0.05 μg/mL, respectively. Culture medium only (containing no bacteria) is also included as a negative control for each plate. Ampicillin and rifamnpin are used as positive controls against all bacterial strains in every experiment.
(§6) The overnight culture of a single colony is diluted in sterile medium so that, after inoculation, each well contains approximately 5×10^5CFU/mL. Within 15 minutes of preparation, […] of the adjusted inoculum suspension is added to the microliter plate. Each well is diluted with an equal volume of the antimicrobial compounds or control solution. The inoculated microtiter plate is typically incubated at 35° C. for 16-20 hours. The turbidity of each well is determined by measuring the absorbance at 595 nm using a BioRad Model 3550-UV microplate reader.
as §3

[3] = test system: E. coli (BAS); assay: MBC, E. coli (BAS); assay type: cell-based; settings: minimum bactericidal concentration; for MBC: Escherichia coli, read-out: MBG
Experimental: as §1, §2, §3

[4] = test system: S. Aureus (Rif-res); assay: MBC, S. Aureus (Rif-res); assay type: cell-based; settings: for MBC: Staphylococcus aureus, read-out: MBG
Experimental: as §1, §2, §3

[5] = test system: E. coli (MCR106); assay: MIC, broth microdilution, E. coli (MCR106); assay type: cell-based
Experimental: as §1, §4, §5, §6, §3

[6] = test system: S. Aureus (Rif-res); assay: MIC, broth microdilution, S. Aureus (Rif-res); assay type: cell-based
Experimental: as §1, §4, §5, §6, §3

[7] = test system: E. coli (BAS); assay: MIC, broth microdilution, E. coli (BAS); assay type: cell-based
Experimental: as §1, §4, §5, §6, §3

[8] = test system: S. Aureus; assay: MBC, S. Aureus; assay type: cell-based; settings: for MBC: Staphylococcus aureus, read-out: MBG
Experimental: as §1, §2, §3

[9] = test system: bacterial RNA polymerase; assay: in vitro transcription, bacterial versus human RNA polymerase; assay type: biochemical; settings: in words; RNA polymerase from S. aureus, E. coli or human, pTaq promoter template
Text: The compounds useful for inclusion in the pharmaceutical formulations of the invention can be identified by their ability to bind to, and/or inhibit the activity of, one or more bacterial RNA polymerases. RNA polymerase as used herein refers to DNA-dependent RNA polymerase holoenzyme, which is a complex consisting of five protein subunits: two copies of the a subunit and one copy each of the β, β', and σ subunits. The α, β and β' subunits are invariant in a given bacterial species and together form core RNA polymerase.
RNA polymerase inhibition activity of a compound can be detected by including the compound in an in vitro transcription reaction and comparing the level of transcription that occurs in the presence and absence of the compound. […] After incubation for 60 minutes at 25° C., the reaction is terminated with 100 μl 10% TCA, which also precipitates the newly transcribed RNA, and incorporation of radioactivity into RNA is quantified. […]
It will be understood that useful antimicrobial compositions and formulations act selectively on microbial pathogens. […] That is, the inhibitory activity of a particular compound towards an animal RNA polymerase may be measured in parallel with a bacterial RNA polymerase. […]

[10] = Staphylococcus aureus, read-out: MIC
[11] = Escherichia coli, read-out: MIC

| Compound | MBC [1] [µg/mL] | MIC [2, 10] [µg/mL] | MBC [3] [µg/mL] | MBC [4] [µg/mL] | MIC ([5]; Escherichia coli) [µg/mL] | MIC ([6]; Staphylococcus aureus) [µg/mL] | MIC [7, 11] [µg/mL] | MBC [8] [µg/mL] | selectivity for bacterial RNA polymerase relative to human RNA polymerase [9] | antimicrobial activity against S. aureus ([2]; in words, MIC and MBC, compared with the other compounds) | antimicrobial activity against E. coli ([5]; in words, MIC and MBC, E. coli strain not named) | MBG [1] [µg/mL] | MIC [2] [µg/mL] | MBG [3] [µg/mL] | MBG ([4]; S. Aureus (Rif-res), rifampicin-resistant, minimum bactericidal concentration) [µg/mL] | MIC ([5]; E. coli (MCR106)) [µg/mL] | MIC ([6]; S. Aureus (Rif-res), rifampicin-resistant) [µg/mL] | MIC [7] [µg/mL] | MBG ([8]; S. Aureus, minimum bactericidal concentration) [µg/mL] |
| --- | --- | --- | --- | --- | --- | --- | --- | --- | --- | --- | --- | --- | --- | --- | --- | --- | --- | --- | --- |
| OCCCN1CCN(c2ccc(Nc3ccnc4cc5ccccc5cc34)cc2)CC1 [3{4-[4-(benzo[g]quinolin-4-yl-amino)phenyl]-1-piperazinyl}-1-propanol] | 64 (≈ 155 µM) | 32 (≈ 77.6 µM) | 8 (≈ 19.4 µM) | 8 (≈ 19.4 µM) | 16 (≈ 38.8 µM) | 8 (≈ 19.4 µM) | 8 (≈ 19.4 µM) | 32 (≈ 77.6 µM) |  |  |  |  |  |  |  |  |  |  |  |
| CCCCC(C)Nc1ccnc2cc3ccccc3cc12 (centres unmarked) [N-(1-methylpentyl)benzo[g]quinolin-4-amine] | > 64 | 16 (≈ 57.5 µM) | 16 (≈ 57.5 µM) | 16 (≈ 57.5 µM) | > 64 | 8 (≈ 28.7 µM) | 8 (≈ 28.7 µM) | 16 (≈ 57.5 µM) |  |  |  |  |  |  |  |  |  |  |  |
| c1ccc2cc3c(Nc4ccc(N5CCCCCC5)cc4)ccnc3cc2c1 [N-[4-(1-azepanyl)phenyl]benzo[g]quinolin-4-amine] | > 64 | 2 (≈ 5.44 µM) | > 64 | 1 (≈ 2.72 µM) | > 64 | 1 (≈ 2.72 µM) | > 64 | 2 (≈ 5.44 µM) |  |  |  |  |  |  |  |  |  |  |  |
| CCN1CCC(c2ccc(Nc3ccnc4cc5ccccc5cc34)cc2)CC1 [N-[4-(1-ethyl-4-piperidyl)phenyl]benzo[g]quinolin-4-amine] | 32 (≈ 83.9 µM) | 64 (≈ 168 µM) | 32 (≈ 83.9 µM) | 32 (≈ 83.9 µM) |  | 32 (≈ 83.9 µM) | 32 (≈ 83.9 µM) | 64 (≈ 168 µM) |  |  |  |  |  |  |  |  |  |  |  |
| c1ccc2cc3c(Nc4ccc(N5CCCCC5)cc4)ccnc3cc2c1 [N-[4-(1-piperidinyl)phenyl]benzo[g]quinolin-4-amine] | > 64 | 2 (≈ 5.66 µM) | 2 (≈ 5.66 µM) | 2 (≈ 5.66 µM) | > 64 | 2 (≈ 5.66 µM) | 2 (≈ 5.66 µM) | 4 (≈ 11.3 µM) | highest degree of selectivity for bacterial RNA polymerases | most potent antimicrobial activity against s. aureus | less effective against E. coli |  |  |  |  |  |  |  |  |
| C#CCCN1CCN(c2ccc(Nc3ccnc4cc5ccccc5cc34)cc2)CC1 [N-{4-[4-(3-butynyl)-1-piperazinyl]phenyl}benzo[g]quinolin-4-amine] | > 64 | 16 (≈ 39.4 µM) | > 64 | 16 (≈ 39.4 µM) | > 64 | 16 (≈ 39.4 µM) | > 64 | 16 (≈ 39.4 µM) |  |  |  |  |  |  |  |  |  |  |  |
| CCN(CC)CCNc1ccc(Nc2ccnc3cc4ccccc4cc23)cc1 [N^1-benzo[g]quinolin-4-yl-N^4-[2-(diethylamino)ethyl]-1,4-benzenediamine] | 16 (≈ 41.6 µM) | 16 (≈ 41.6 µM) | 16 (≈ 41.6 µM) | 8 (≈ 20.8 µM) | 8 (≈ 20.8 µM) | 8 (≈ 20.8 µM) | 4 (≈ 10.4 µM) | 16 (≈ 41.6 µM) |  |  |  |  |  |  |  |  |  |  |  |
| CC(C)Nc1ccc(Nc2ccnc3cc4ccccc4cc23)cc1 [N^1-benzo[g]quinolin-4-yl-N^4-isopropyl-1,4,benzenediamine] | > 64 | 8 (≈ 24.4 µM) | > 64 | 32 (≈ 97.7 µM) | > 64 | 32 (≈ 97.7 µM) | > 64 | 8 (≈ 24.4 µM) |  |  |  |  |  |  |  |  |  |  |  |
| N-{5-benzo[g]quinolin-4-yl-3-[(diethylamino)methyl]-2-methylbenzyl}-N-ethyl-1-ethanamine |  |  |  |  |  |  |  |  |  |  |  | > 64 | 64 | 16 | 64 | 64 | 32 | 16 | 64 |
